In publication PMC6314990 (Forensic Toxicology, 2018):

Columns and labels:
[1] = test system: pentobarbital-induced sleep in mice; experiment: Cannabinoid-induced potentiation of pentobarbital-induced sleep and effect of CB1 receptor antagonists; format: in vivo, ddY mice; conditions: for Prolongation of pentobarbital-induced sleep compared with vehicle-pretreated group (Veh + Veh): cannabinoid 10 mg/kg i.v., pentobarbital 40 mg/kg i.p. 15 min later, male ddY mice, n = 8
Experimental: For the pharmacological studies, cannabinoids and antagonists were suspended in saline containing 1% Tween 80. Sodium pentobarbital was dissolved in saline and injected intraperitoneally (i.p.; 40 mg/kg) for the mice. Male ddY mice weighing 20–25 g were housed in groups of 8. All animals were kept in a temperature-controlled (25 °C) environment with a 12-h light–dark cycle (lights on at 7:00 a.m.) and received food and water ad libitum. […] One percent Tween 80-saline solution was injected instead of cannabinoids or antagonists for the vehicle treated group as a control.

CB1 receptor = CB1 receptor (Mus musculus, UniProt P47746)
Sequence of CB1 receptor (P47746 whole entry): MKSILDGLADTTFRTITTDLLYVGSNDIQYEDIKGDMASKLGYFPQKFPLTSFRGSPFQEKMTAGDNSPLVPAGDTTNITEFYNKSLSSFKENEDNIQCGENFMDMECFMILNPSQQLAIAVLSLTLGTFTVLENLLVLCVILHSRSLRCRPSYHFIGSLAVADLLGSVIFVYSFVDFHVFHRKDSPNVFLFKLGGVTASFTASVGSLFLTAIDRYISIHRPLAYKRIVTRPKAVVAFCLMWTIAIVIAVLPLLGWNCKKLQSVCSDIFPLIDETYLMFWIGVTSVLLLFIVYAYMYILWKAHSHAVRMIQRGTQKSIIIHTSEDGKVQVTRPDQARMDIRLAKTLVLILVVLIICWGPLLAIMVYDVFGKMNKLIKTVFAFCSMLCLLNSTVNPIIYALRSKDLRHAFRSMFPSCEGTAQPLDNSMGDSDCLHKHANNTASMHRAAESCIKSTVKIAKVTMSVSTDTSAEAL
Experimental: Crude synaptic membranes from ddY male mice brains were prepared according to the method of Zukin et al. [32] with a slight modification. Briefly, whole mice brains were homogenized in 15 volumes of ice-cold 0.32 M sucrose for 1 min with a Polytron homogenizer (Kinematica, Lucerne, Switzerland), followed by centrifugation at 1000 g for 10 min at 4 °C. The pellet was discarded and the supernatant was centrifuged at 20000g for 20 min at 4 °C. This pellet was homogenized for 15 s in 40 volumes of ice-cold distilled water and further dispersed with a Polytron homogenizer. The suspension was then centrifuged at 8000g for 20 min at 4 °C. The supernatant and the soft buffy upper layer of the pellet were carefully collected and combined. This fraction was then centrifuged at 48000g for 20 min at 4 °C.
A ligand binding assay for the cannabinoid receptor was performed according to the method of Devane et al. [34] and Compton et al. [16]. […] The filters were then placed in glass scintillation vials with 10 ml of Clearsol and the radioactivity was counted using a liquid scintillation counter (LSC-6100, Aloka, Tokyo, Japan). […] The inhibitory constant (Ki value) was calculated according to the method of Speth et al. [35].

C=C(C)[C@@H]1CCC(C)=C[C@H]1c1c(O)cc(CCCCC)cc1O [CBD, cannabidiol]
Prolongation of pentobarbital-induced sleep compared with vehicle-pretreated group (Veh + Veh) [1]: 1.8 fold

Cc1c(C(=O)NN2CCCCC2)nn(-c2ccc(Cl)cc2Cl)c1-c1ccc(I)cc1 [AM251, N-(piperidin-1-yl)-5-(4-iodophenyl)-1-(2,4-dichlorophenyl)-4-methyl-1H-pyrazole-3-carboxamide]
Effect of antagonist on potentiating effect of ∆9-THC on pentobarbital-induced sleep, low dose ([1]; antagonist 2 mg/kg i.v., ∆9-THC 10 mg/kg i.v., pentobarbital 40 mg/kg i.p., mice): attenuated | Effect of antagonist pretreatment on potentiation of pentobarbital-induced sleep by ∆9-THC ([1]; antagonist 2–10 mg/kg i.v. 10 min before ∆9-THC 10 mg/kg i.v., pentobarbital 40 mg/kg i.p., mice): decreased dose-dependently | Effect of antagonist alone (antagonist + Veh) on pentobarbital-induced sleeping time ([1]; without ∆9-THC, pentobarbital 40 mg/kg i.p., mice): no change in pentobarbital-induced sleeping time

CCCC(C)C1(CC)C(=O)NC(=O)NC1=O (stereo not shown) [Pentobarbital, sodium pentobarbital]
Specific [3H]CP55940 binding (CB1 receptor; pentobarbital 1 mM added to the reaction mixture, control 0.055 ± 0.002, N.S. vs control): 0.050 ± 0.003 ^N.S. pmol/mg protein | Effect on specific [3H]CP55940 binding (CB1 receptor; pentobarbital 1 mM, mouse brain synaptic membrane): did not affect specific [^3H]CP55940 binding

CCCCCc1cc(O)c2c(c1)OC(C)(C)[C@@H]1CCC(C)=CC21 (stereo partly shown) [∆^9-THC, ∆^9-tetrahydrocannabinol]
Prolongation of pentobarbital-induced sleep compared with vehicle-pretreated group (Veh + Veh) [1]: 3.3 fold
